Test results published in the supplement of paper PMC5908809.

How the values were obtained:
[1] = tested on: normal primary NK cells, pool 3 (3 donors) (IL-2 2.5 ng/mL); experiment: drug sensitivity score (DSS) (DSS units); higher = more sensitive; extreme values may be limits of the assay; settings: 72 h
KAI3 (IL-2 2.5 ng/mL) [2] = experiment: as above; settings: 72 h
IMC-1 (IL-2 20 ng/mL) [3] = experiment: as above; settings: 72 h
NK-YS (IL-2 2.5 ng/mL) [4] = experiment: as above; settings: 72 h
NK-92 (IL-2 2.5 ng/mL) [5] = experiment: as above; settings: 72 h
KHYG-1 (IL-2 2.5 ng/mL) [6] = experiment: as above; settings: 72 h
SNK-6 (IL-2 2.5 ng/mL) [7] = experiment: as above; settings: 72 h
[8] = tested on: normal primary NK cells, pool 1 (3 donors), resting (IL-2 0 ng/mL); experiment: as above; settings: 72 h
NKL (IL-2 2.5 ng/mL) [9] = experiment: as above; settings: 72 h
[10] = tested on: normal primary NK cells, pool 2 (3 donors) (IL-2 2.5 ng/mL); experiment: as above; settings: 72 h
YT (IL-2 2.5 ng/mL) [11] = experiment: as above; settings: 72 h
DERL-7 (IL-2 2.5 ng/mL) [12] = experiment: as above; settings: 72 h
[13] = tested on: normal primary NK cells, pool 1 (3 donors) (IL-2 2.5 ng/mL); experiment: as above; settings: 72 h
[14] = tested on: normal primary NK cells, pool 3 (3 donors) (IL-2 2.5 ng/mL); experiment: percent inhibition of viability; higher = more inhibition; settings: 72 h
KAI3 (IL-2 2.5 ng/mL) [15] = experiment: as above; settings: 72 h
IMC-1 (IL-2 20 ng/mL) [16] = experiment: as above; settings: 72 h
NK-YS (IL-2 2.5 ng/mL) [17] = experiment: as above; settings: 72 h
NK-92 (IL-2 2.5 ng/mL) [18] = experiment: as above; settings: 72 h
KHYG-1 (IL-2 2.5 ng/mL) [19] = experiment: as above; settings: 72 h
SNK-6 (IL-2 2.5 ng/mL) [20] = experiment: as above; settings: 72 h
[21] = tested on: normal primary NK cells, pool 1 (3 donors), resting (IL-2 0 ng/mL); experiment: as above; settings: 72 h
NKL (IL-2 2.5 ng/mL) [22] = experiment: as above; settings: 72 h
[23] = tested on: normal primary NK cells, pool 2 (3 donors) (IL-2 2.5 ng/mL); experiment: as above; settings: 72 h
YT (IL-2 2.5 ng/mL) [24] = experiment: as above; settings: 72 h
DERL-7 (IL-2 2.5 ng/mL) [25] = experiment: as above; settings: 72 h
[26] = tested on: normal primary NK cells, pool 1 (3 donors) (IL-2 2.5 ng/mL); experiment: as above; settings: 72 h
[27] = tested on: normal NK cells expanded with K562-aAPC; experiment: drug sensitivity score (DSS) (DSS units); higher = more sensitive; extreme values may be limits of the assay; settings: 72 h; IL-2 2.5 ng/mL
Description: (§1)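 Drug sensitivity and resistance testing on K562-aAPC-expanded normal NK cells: 5 concentrations (10-fold steps over a 10,000-fold range), 72 h at 37 °C, viability by CellTiter-Glo normalised to DMSO and benzethonium chloride controls; DSS from the fitted curve.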

[28] = tested on: normal NK cells expanded with K562-aAPC; experiment: percent inhibition of viability; higher = more inhibition; settings: 72 h, IL-2 2.5 ng/mL
Description: as §1

Nc1cccc2c1C(=O)N(C1CCC(=O)NC1=O)C2=O (stereo not drawn) [Pomalidomide] (max concentration tested 10000 nM)
Settings | drug sensitivity score
DERL-7 (IL-2 2.5 ng/mL) [12] | 0
IMC-1 (IL-2 20 ng/mL) [3] | 0
KAI3 (IL-2 2.5 ng/mL) [2] | 0
KHYG-1 (IL-2 2.5 ng/mL) [6] | 0
NK-92 (IL-2 2.5 ng/mL) [5] | 0
NK-YS (IL-2 2.5 ng/mL) [4] | 0
NKL (IL-2 2.5 ng/mL) [9] | 3.93
SNK-6 (IL-2 2.5 ng/mL) [7] | 0.99
YT (IL-2 2.5 ng/mL) [11] | 0
[1] | 0
[8] | 0
[10] | 0
[13] | 0
[27] | 0

percent inhibition of viability [%]
Settings | 1 nM | 10 nM | 100 nM | 1000 nM | 10000 nM
DERL-7 (IL-2 2.5 ng/mL) [25] | -0.13 | -4.4 | 15.2 | -7.7 | -4.17
IMC-1 (IL-2 20 ng/mL) [16] | -4 | -1.04 | -2.22 | -4.13 | -2.92
KAI3 (IL-2 2.5 ng/mL) [15] | -0.58 | -8.97 | -7.97 | -13.6 | -12.9
KHYG-1 (IL-2 2.5 ng/mL) [19] | -4.54 | -1.13 | -5.7 | -4.26 | -0.94
NK-92 (IL-2 2.5 ng/mL) [18] | -1.19 | -10.2 | -3.35 | -12.4 | -16.6
NK-YS (IL-2 2.5 ng/mL) [17] | -3.69 | -2.34 | -5.2 | -2.26 | -0.5
NKL (IL-2 2.5 ng/mL) [22] | -6.14 | -8.75 | 7.72 | 18.5 | 21.2
SNK-6 (IL-2 2.5 ng/mL) [20] | -0.98 | 3.29 | 13.5 | -10.9 | 31.7
YT (IL-2 2.5 ng/mL) [24] | -5.53 | -2.96 | -0.67 | -5.5 | -0.71
[14] | -16 | 7.94 | -8.83 | -7.7 | -5.51
[21] | -1.02 | -19.1 | -32.7 | -20.7 | -23.7
[23] | -13.3 | 1.17 | -2.18 | -2.49 | -1.88
[26] | -3.59 | -0.54 | -10.1 | 9.65 | 3.39
[28] | -10.8 | -9.91 | -9.37 | -11.8 | -8.13

C[C@]12C=CC(=O)C=C1CC[C@@H]1[C@@H]2C(=O)C[C@@]2(C)[C@H]1CC[C@]2(O)C(=O)CO [Prednisone] (max concentration tested 10000 nM)
Settings | drug sensitivity score
DERL-7 (IL-2 2.5 ng/mL) [12] | 0
IMC-1 (IL-2 20 ng/mL) [3] | 0.5
KAI3 (IL-2 2.5 ng/mL) [2] | 0.51
KHYG-1 (IL-2 2.5 ng/mL) [6] | 0.05
NK-92 (IL-2 2.5 ng/mL) [5] | 0.06
NK-YS (IL-2 2.5 ng/mL) [4] | 0.36
NKL (IL-2 2.5 ng/mL) [9] | 0.06
SNK-6 (IL-2 2.5 ng/mL) [7] | 2.13
YT (IL-2 2.5 ng/mL) [11] | 8.17
[1] | 0
[8] | 0.01
[10] | 0
[13] | 0
[27] | 1.61

percent inhibition of viability [%]
Settings | 1 nM | 10 nM | 100 nM | 1000 nM | 10000 nM
DERL-7 (IL-2 2.5 ng/mL) [25] | -1.82 | -3.2 | -10.6 | 1.18 | -9
IMC-1 (IL-2 20 ng/mL) [16] | 0.28 | -0.37 | 3.06 | 4.05 | 15.4
KAI3 (IL-2 2.5 ng/mL) [15] | -0.89 | -0.49 | 8.97 | -3.86 | 21.4
KHYG-1 (IL-2 2.5 ng/mL) [19] | -2.3 | -2.14 | 4.01 | 1.48 | 11.2
NK-92 (IL-2 2.5 ng/mL) [18] | -5.87 | -0.1 | 11.4 | -3.86 | 13.6
NK-YS (IL-2 2.5 ng/mL) [17] | 1.7 | 1.75 | 7.19 | 1.77 | 14.5
NKL (IL-2 2.5 ng/mL) [22] | -9.04 | 4.61 | -4.53 | 4.17 | 10.7
SNK-6 (IL-2 2.5 ng/mL) [20] | -5.48 | 15 | 3.96 | 19.8 | 15
YT (IL-2 2.5 ng/mL) [24] | 1.47 | 5.85 | 29.5 | 18.9 | 32.6
[14] | -8.77 | -7.64 | -1.51 | -4.94 | 0.45
[21] | 11.6 | -5.07 | 6.95 | -4.28 | 11.9
[23] | -7.97 | -0.38 | -4.79 | -8.7 | -1.49
[26] | 4.02 | -6.96 | 4.16 | -9.18 | 9.23
[28] | -4.43 | -1.43 | -0.64 | 6.95 | 22
